#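 GI50 = concentration required for 50% inhibition of growth. TGI denotes the concentration required for complete inhibition of growth.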
# What was measured:
# Test in all cases: NCI anticancer screen, dose series, 384-well format
# [1] = tested on: SF-539 CNS
# [2] = tested on: SF-268 CNS
# [3] = tested on: COLO 205 colon
# [4] = tested on: OVCAR-4 ovarian
# [5] = tested on: KM12 colon
# [6] = tested on: MOLT-4 leukemia
# [7] = tested on: MDA-MB-231 breast
# [8] = tested on: SK-OV-3 ovarian
# [9] = tested on: A549 NSCLC
# [10] = tested on: BT-549 breast
# [11] = tested on: MDA-MB-468 breast
# [12] = tested on: NCI-H226 lung
# [13] = tested on: A498 renal
# [14] = tested on: OVCAR-8 ovarian
# [15] = tested on: U251 glioblastoma
# [16] = tested on: M14 melanoma
# [17] = tested on: SF-295 CNS
# [18] = tested on: RXF 393 renal
# [19] = tested on: HCT-15 colon
# [20] = tested on: TK-10 renal
# [21] = tested on: T-47D breast
# [22] = tested on: ACHN renal
# [23] = tested on: K-562 leukemia
# [24] = tested on: NCI/ADR-RES ovarian
# [25] = tested on: NCI-H522 lung
# [26] = tested on: NCI-H322M lung
# [27] = tested on: OVCAR-3 ovarian
# [28] = tested on: UACC-62 melanoma
# [29] = tested on: SK-MEL-2 melanoma
# [30] = tested on: SK-MEL-28 melanoma
# [31] = tested on: HCT-116 colon
# [32] = tested on: DU-145 prostate
# [33] = tested on: 786-0 renal
# [34] = tested on: HT29 colon
# [35] = tested on: HCC-2998 colon
# [36] = tested on: CAKI-1 renal
# [37] = tested on: RPMI-8226 leukemia
# [38] = tested on: UACC-257 melanoma
# [39] = tested on: UO-31 renal
# [40] = tested on: MDA-MB-435 melanoma
# [41] = tested on: PC-3 prostate
# [42] = tested on: HOP-62 NSCLC
# [43] = tested on: SN12C renal
# [44] = tested on: HL-60(TB) leukemia
# [45] = tested on: LOX IMVI melanoma
# [46] = tested on: SW-620 colon
# [47] = tested on: HOP-92 NSCLC
# [48] = tested on: MALME-3M melanoma
# [49] = tested on: SNB-19 CNS
# [50] = tested on: CCRF-CEM leukemia
# [51] = tested on: NCI-H23 lung
# [52] = tested on: NCI-H460 NSCLC
# [53] = tested on: IGROV1 ovarian
# [54] = tested on: MCF7 breast
# [55] = tested on: SR leukemia
# [56] = tested on: OVCAR-5 ovarian
# [57] = tested on: SK-MEL-5 melanoma
compound,measurement,setting,value
C[C@H](c1ccc(Cl)cc1N)N1C(=O)c2cc(I)ccc2N(CCCN2CCN(C)CC2)C(=O)[C@@H]1c1ccc(Cl)cc1,GI50,[1],1.64 µM
same,TGI,[1],3.01 µM
same,GI50,[2],1.77 µM
same,TGI,[2],3.16 µM
same,GI50,[3],1.64 µM
same,TGI,[3],3.02 µM
same,GI50,[4],1.56 µM
same,TGI,[4],2.9 µM
same,GI50,[5],1.56 µM
same,TGI,[5],2.92 µM
same,GI50,[6],0.144 µM
same,TGI,[6],0.279 µM
same,GI50,[7],1.61 µM
same,TGI,[7],2.96 µM
same,GI50,[8],1.52 µM
same,TGI,[8],2.85 µM
same,GI50,[9],1.06 µM
same,TGI,[9],2.26 µM
same,GI50,[10],1.55 µM
same,TGI,[10],2.9 µM
same,GI50,[11],1.71 µM
same,TGI,[11],3.09 µM
same,GI50,[12],0.649 µM
same,TGI,[12],1.98 µM
same,GI50,[13],0.779 µM
same,TGI,[13],2.04 µM
same,GI50,[14],1.73 µM
same,TGI,[14],3.12 µM
same,GI50,[15],1.64 µM
same,TGI,[15],3.02 µM
same,GI50,[16],1.14 µM
same,TGI,[16],2.36 µM
same,GI50,[17],1.7 µM
same,TGI,[17],3.08 µM
same,GI50,[18],0.848 µM
same,TGI,[18],2.12 µM
same,GI50,[19],1.68 µM
same,TGI,[19],3.06 µM
same,GI50,[20],1.58 µM
same,TGI,[20],2.92 µM
same,GI50,[21],1.46 µM
same,TGI,[21],2.78 µM
same,GI50,[22],0.965 µM
same,TGI,[22],2.16 µM
same,GI50,[23],1.29 µM
same,TGI,[23],2.58 µM
same,GI50,[24],1.59 µM
same,TGI,[24],2.95 µM
same,GI50,[25],1.54 µM
same,TGI,[25],2.88 µM
same,GI50,[26],1.77 µM
same,TGI,[26],3.17 µM
same,GI50,[27],1.45 µM
same,TGI,[27],2.78 µM
same,GI50,[28],0.591 µM
same,TGI,[28],1.95 µM
same,GI50,[29],1.59 µM
same,TGI,[29],2.94 µM
same,GI50,[30],1.59 µM
same,TGI,[30],2.95 µM
same,GI50,[31],0.613 µM
same,TGI,[31],1.95 µM
same,GI50,[32],1.76 µM
same,TGI,[32],3.16 µM
same,GI50,[33],1.6 µM
same,TGI,[33],2.96 µM
same,GI50,[34],1.68 µM
same,TGI,[34],3.08 µM
same,GI50,[35],1.25 µM
same,TGI,[35],2.5 µM
same,GI50,[36],0.482 µM
same,TGI,[36],1.78 µM
same,GI50,[37],0.0209 µM
same,TGI,[37],0.191 µM
same,GI50,[38],1.22 µM
same,TGI,[38],2.47 µM
same,GI50,[39],1.15 µM
same,TGI,[39],2.37 µM
same,GI50,[40],1.71 µM
same,TGI,[40],3.08 µM
same,GI50,[41],1.66 µM
same,TGI,[41],3.04 µM
same,GI50,[42],1.62 µM
same,TGI,[42],2.98 µM
same,GI50,[43],1.59 µM
same,TGI,[43],2.94 µM
same,GI50,[44],0.255 µM
same,TGI,[44],0.641 µM
same,GI50,[45],1.7 µM
same,TGI,[45],3.09 µM
same,GI50,[46],1.78 µM
same,TGI,[46],3.19 µM
same,GI50,[47],1.13 µM
same,TGI,[47],2.34 µM
same,GI50,[48],1.06 µM
same,TGI,[48],2.25 µM
same,GI50,[49],1.71 µM
same,TGI,[49],3.09 µM
same,GI50,[50],1.41 µM
same,TGI,[50],2.72 µM
same,GI50,[51],1.57 µM
same,TGI,[51],2.92 µM
same,GI50,[52],0.67 µM
same,TGI,[52],2 µM
same,GI50,[53],1.21 µM
same,TGI,[53],2.47 µM
same,GI50,[54],1.06 µM
same,TGI,[54],2.26 µM
same,GI50,[55],0.144 µM
same,TGI,[55],0.28 µM
same,GI50,[56],1.77 µM
same,TGI,[56],3.16 µM
same,GI50,[57],1.11 µM
same,TGI,[57],2.31 µM
